Laboratory results from PMC10223552 (Pharmaceuticals, 2023).
Like-named read-outs stand apart in the source and are kept apart here.

Experiments:
eeAChE = target: T1, eeAChE (Electrophorus electricus, UniProt O42275); assay: biochemical; parameters: species or system electric eel; conditions: for inhibition at 10 µM: read-out: eeAChE % inh. (10 µM) ± SD
T1 construct: purchased Sigma–Aldrich (Steinheim, Germany)

hH3R = target: T2, hH3R (Homo sapiens, UniProt Q9Y5N1); assay: biochemical; assay type: binding
T2 construct: expressed in transfected cells
T2 sequence (Q9Y5N1 whole entry): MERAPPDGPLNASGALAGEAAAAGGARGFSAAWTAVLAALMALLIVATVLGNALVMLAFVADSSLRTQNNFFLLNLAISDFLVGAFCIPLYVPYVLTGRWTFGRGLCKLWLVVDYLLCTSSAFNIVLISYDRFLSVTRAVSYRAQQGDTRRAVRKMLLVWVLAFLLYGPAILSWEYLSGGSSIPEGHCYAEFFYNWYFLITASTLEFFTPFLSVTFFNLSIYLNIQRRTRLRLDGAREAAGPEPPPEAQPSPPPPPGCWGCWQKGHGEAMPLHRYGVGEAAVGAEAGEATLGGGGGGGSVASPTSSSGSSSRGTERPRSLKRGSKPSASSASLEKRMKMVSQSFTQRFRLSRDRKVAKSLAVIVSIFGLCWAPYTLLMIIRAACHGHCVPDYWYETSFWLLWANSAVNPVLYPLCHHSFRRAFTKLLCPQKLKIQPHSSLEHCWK
Description: All newly synthesized compounds were evaluated as H3R antagonists/inverse agonists on the guinea pig ileum (gpH3R), stimulated electrically to induce contractions. The distinct affinity profile and species-dependent pharmacology of H3R ligands are known. […] Therefore, to compare species differences, all newly synthesized compounds were subjected to radioligand displacement assay in membrane fractions of HEK-293 cells stably expressing hH3R. […] Ex vivo assay for histamine H3R and H1R antagonists were measured on the isolated guinea pig ileum stimulated to contractions by histamine. The pA2-values were calculated according to Arunlakshana and Schild. The radioligand-displacement binding assay was performed in membrane fractions of HEK-293 cells stably expressing hH3R. Cell cultivation and membrane preparation was performed according to Kottke et al.. The Ki values were calculated from the IC50 values using the Cheng–Prusoff equation [37]. The statistical calculations were performed on –log(Ki). […] The inhibitory activities of novel ADS compounds were assessed in spectrophotometric Ellman’s assay using AChE from electric eel (eeAChE) and BuChE from horse serum (eqBuChE).
3.3 hH3R radioligand displacement binding assay.
The radioligand displacement binding assay was performed in membrane fractions of HEK-293 cells stably expressing hH3R. Cell cultivation and membrane preparation was performed according to Kottke et al. [T. Kottke, […]
radioligand displacement assay, radioactively labeled [3H]Nα-methylhistamine was used at a final concentration […]
The total assay volume was set to 200 µL. The compounds were tested in several appropriate concentrations between 100 µM and 0.1 nM. Pipetting was partly done by Freedom Evo® (Tecan).
The membrane fraction (20 […]
µg/well), test compounds and radiolabeled ligand were incubated for 90 minutes at 25 °C while shaking. The bound radioligand was separated from the free radioligand by filtration through GF/B filters pre-treated with 0.3 % (m/v) polyethyleneimine using a cell harvester. Radioactivity was determined by liquid scintillation counting using a MicroBeta® Trilux (Perkin Elmer). The data was obtained in duplicates in at least three independent experiments. Non-specific binding was subtracted from the raw data to calculate specific-binding values. The evaluation was performed with GraphPad Prism 6.1 (San Diego, CA, USA) using non-linear regression (one-site competition with a logarithmic scale). The Ki values were calculated from the IC50 values using the Cheng-Prusoff […]
equation. [C. […] The statistical calculations […]
were performed on –log(Ki).

gpH3R = target: T3, gpH3R (Cavia porcellus, UniProt Q9JI35); assay: Ex vivo assay for histamine H3R antagonists on electrically stimulated guinea pig ileum
T3 construct: from tissue; host or cells: isolated distal ileum of male guinea pigs
T3 sequence (Q9JI35 whole entry): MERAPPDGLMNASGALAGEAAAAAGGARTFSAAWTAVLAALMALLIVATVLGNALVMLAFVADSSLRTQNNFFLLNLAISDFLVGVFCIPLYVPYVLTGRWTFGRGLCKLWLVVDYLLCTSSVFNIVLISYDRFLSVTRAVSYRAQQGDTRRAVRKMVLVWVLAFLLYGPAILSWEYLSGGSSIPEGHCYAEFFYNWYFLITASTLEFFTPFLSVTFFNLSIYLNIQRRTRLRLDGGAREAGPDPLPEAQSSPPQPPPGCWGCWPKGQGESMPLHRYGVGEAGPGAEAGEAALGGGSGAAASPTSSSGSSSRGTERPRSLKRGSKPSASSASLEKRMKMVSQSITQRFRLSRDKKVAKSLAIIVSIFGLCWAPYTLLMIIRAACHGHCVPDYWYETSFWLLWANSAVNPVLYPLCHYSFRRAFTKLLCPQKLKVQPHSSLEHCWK
Description: All newly synthesized compounds were evaluated as H3R antagonists/inverse agonists on the guinea pig ileum (gpH3R), stimulated electrically to induce contractions. The distinct affinity profile and species-dependent pharmacology of H3R ligands are known. […] Therefore, to compare species differences, all newly synthesized compounds were subjected to radioligand displacement assay in membrane fractions of HEK-293 cells stably expressing hH3R.
(§1) Ex vivo assay for histamine H3R and H1R antagonists were measured on the isolated guinea pig ileum stimulated to contractions by histamine. The pA2-values were calculated according to Arunlakshana and Schild. The radioligand-displacement binding assay was performed in membrane fractions of HEK-293 cells stably expressing hH3R. Cell cultivation and membrane preparation was performed according to Kottke et al.. The Ki values were calculated from the IC50 values using the Cheng–Prusoff equation [37]. The statistical calculations were performed on –log(Ki). […] The inhibitory activities of novel ADS compounds were assessed in spectrophotometric Ellman’s assay using AChE from electric eel (eeAChE) and BuChE from horse serum (eqBuChE).
3. Pharmacological assay results.
3.1. Ex vivo assay for histamine H3R receptor antagonists on guinea pig ileum.
Male guinea pigs, weighing 300-400 g were euthanized by a blow to the neck. Following this, a 20-30 cm length of the distal ileum, apart from the terminal 5 cm was rapidly removed and placed in phosphate buffer at room […]
indomethacin (Sigma-Aldrich, St. Louis, MO, USA) (1·10-6 mol/L). The intraluminal content was rinsed and the isolated intestine was cut into 1.5-2 cm segments. The preparations were mounted between two platinum electrodes […]
load of 1.0 g (Hugo Sachs Hebel-Messvorsatz (Tl-2)/HF-modem; Hugo Sachs Elektronik, Hugstetten, Germany) connected to a pen recorder (Kipp & Zonen BD41, Delft, Holland). During an equilibration period of 60 min, the Krebs buffer was changed every 10 min. The preparations were then continuously stimulated at 15-20 V at a frequency of 0.1 Hz for a duration of 0.5 ms, with rectangular-wave electrical pulses (Grass Stimulator S-88; Grass Instruments Co., Quincy, Massachusetts, USA). […] Five minutes […]
before (R)-(−)-α-methylhistamine (RAMH) (Toronto Research Chemicals Inc., North York, Canada), […]
added. The first cumulative concentration-response curve was determined to RAMH (10 nM – 10 mM) at an […]
The second to fourth curve was measured against increasing antagonist concentration (incubation time 20 min). The pA2-values were calculated according to Arunlakshana and Schild. [Br J Pharmacol Chemother. […] Statistical analysis was carried out with the Students’ t-test. In all tests, a p<0.05 was considered statistically significant. The pA2 values were compared with the affinity of thioperamide (Sigma-Aldrich, St. Louis, MO, USA).

eqBuChE = eqBuChE (Equus caballus, UniProt P81908); assay: biochemical; conditions: for inhibition at 10 µM: read-out: eqBuChE % inh. (10 µM) ± SD; for IC50: read-out: eqBuChE IC50 ± sem
eqBuChE, sequence (P81908 whole entry): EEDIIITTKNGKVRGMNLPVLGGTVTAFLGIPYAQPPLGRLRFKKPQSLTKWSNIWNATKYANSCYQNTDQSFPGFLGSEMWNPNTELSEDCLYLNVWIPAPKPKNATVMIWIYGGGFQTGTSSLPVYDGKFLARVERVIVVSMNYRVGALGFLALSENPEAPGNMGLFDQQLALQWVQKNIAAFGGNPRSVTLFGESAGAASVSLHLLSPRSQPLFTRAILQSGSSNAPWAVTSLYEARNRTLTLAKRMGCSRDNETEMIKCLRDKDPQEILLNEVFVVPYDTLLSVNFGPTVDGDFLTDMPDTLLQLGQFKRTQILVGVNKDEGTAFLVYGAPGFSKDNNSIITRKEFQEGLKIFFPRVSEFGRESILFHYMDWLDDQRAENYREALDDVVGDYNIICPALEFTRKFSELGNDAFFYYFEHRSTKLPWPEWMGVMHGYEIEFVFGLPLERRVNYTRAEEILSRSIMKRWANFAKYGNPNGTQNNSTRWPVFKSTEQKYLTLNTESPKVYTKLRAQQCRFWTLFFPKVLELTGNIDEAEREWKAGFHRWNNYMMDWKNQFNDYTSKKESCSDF

gpH1R = target: T4, gpH1R (Cavia porcellus, UniProt P31389); assay: Ex vivo assay for histamine H1R antagonists on guinea pig ileum stimulated by histamine (+atropine); conditions: gpH1R +Atropine pA2 ± sem, isolated guinea pig ileum, vs histamine, 0.05 µM atropine
T4 construct: from tissue; host or cells: isolated distal ileum of male guinea pigs
T4 sequence (P31389 whole entry): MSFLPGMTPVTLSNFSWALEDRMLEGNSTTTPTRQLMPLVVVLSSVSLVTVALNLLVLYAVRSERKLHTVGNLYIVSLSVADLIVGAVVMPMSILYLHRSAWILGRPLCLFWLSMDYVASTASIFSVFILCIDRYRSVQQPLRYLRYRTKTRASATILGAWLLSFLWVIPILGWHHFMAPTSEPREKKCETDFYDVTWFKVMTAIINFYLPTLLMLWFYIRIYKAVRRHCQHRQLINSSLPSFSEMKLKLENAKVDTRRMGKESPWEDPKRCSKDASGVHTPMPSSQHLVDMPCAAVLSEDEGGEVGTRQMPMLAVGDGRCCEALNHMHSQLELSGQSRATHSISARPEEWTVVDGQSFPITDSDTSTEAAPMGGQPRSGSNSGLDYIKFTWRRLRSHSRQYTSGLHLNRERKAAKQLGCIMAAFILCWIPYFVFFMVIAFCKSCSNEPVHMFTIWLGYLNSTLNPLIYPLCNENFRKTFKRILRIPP
Description: A second histamine receptor located in the guinea pig ileum is H1R. The antagonistic effect at H1R was measured on the isolated guinea pig ileum stimulated to contractions by histamine. To eliminate the impact of muscarinic receptors located on the tested tissue, 0.05 µM of atropine was added to the Krebs buffer.
as §1
3.2 Ex vivo assay for histamine H1R receptor antagonists on guinea pig ileum.
Male guinea pigs, weighing 300-400 g were euthanized by a blow to the neck. A 20-30 cm length of the distal ileum, apart from the terminal 5 cm was rapidly removed and placed in phosphate buffer at room temperature (pH […]
Aldrich, St. Louis, MO, USA) (1·10-6 mol/L). The intraluminal content was rinsed and the isolated intestine was cut into 1.5-2 cm segments. The preparations were mounted isotonically in a 20 mL organ bath filled with Krebs […]
a constant load of 0.5 g (Hugo Sachs Hebel-Messvorsatz (Tl-2)/HF-modem; Hugo Sachs Elektronik, Hugstetten, Germany) connected to a pen recorder (Kipp & Zonen BD41, Delft, Holland). During an equilibration period of 40 min, the Krebs buffer was changed every 10 min. The first cumulative concentration-response curve was determined to histamine (Sigma-Aldrich, St. Louis, MO, USA) (10 nM - 10 mM) at increasing concentration spaced by three or 3.3-fold. The second to the fourth (or fifth) curve was measured in the presence of an increasing concentration of antagonist (incubation time 10 min). The pA2-values were calculated according to Arunlakshana and Schild. [Br J Pharmacol Chemother. […] Statistical analysis was carried out with the Students’ t-test. In all tests, a p<0.05 was considered statistically significant. The pA2 values were compared with the affinity

[1] = hH3R -log(Ki) ± sem, mean ± sem, at least three independent experiments
[2] = isolated guinea pig ileum, vs RAMH, read-out: gpH3R pA2 ± sem (converted)
[3] = mean ± sem, at least three independent experiments, read-out: hH3R -log(Ki) ± sem (converted)

T1 sequence (O42275 24-633): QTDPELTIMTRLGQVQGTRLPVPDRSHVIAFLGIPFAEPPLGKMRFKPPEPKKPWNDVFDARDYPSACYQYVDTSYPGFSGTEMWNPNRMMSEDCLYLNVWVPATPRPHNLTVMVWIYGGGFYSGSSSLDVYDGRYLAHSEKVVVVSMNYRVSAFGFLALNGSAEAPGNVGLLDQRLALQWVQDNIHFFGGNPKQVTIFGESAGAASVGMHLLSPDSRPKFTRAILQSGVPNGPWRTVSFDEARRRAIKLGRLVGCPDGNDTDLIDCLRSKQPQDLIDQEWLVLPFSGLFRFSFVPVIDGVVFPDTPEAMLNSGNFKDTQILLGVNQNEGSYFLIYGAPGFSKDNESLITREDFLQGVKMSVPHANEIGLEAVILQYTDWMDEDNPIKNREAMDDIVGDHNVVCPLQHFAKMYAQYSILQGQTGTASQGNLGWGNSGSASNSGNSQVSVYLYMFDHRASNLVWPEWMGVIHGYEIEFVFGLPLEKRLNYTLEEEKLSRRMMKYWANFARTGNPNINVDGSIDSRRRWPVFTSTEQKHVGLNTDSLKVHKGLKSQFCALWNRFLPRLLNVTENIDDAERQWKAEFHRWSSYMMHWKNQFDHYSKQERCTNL

Row | Structure (SMILES) | inhibition at 10 µM (eeAChE) | Ki (hH3R; [1]) | Kb (gpH3R; [2]) | inhibition at 10 µM (eqBuChE) | Kb (gpH1R) | Kb (gpH3R) | IC50 (eqBuChE) | Ki (hH3R; [3]) | Ki (hH3R; hH3R Ki) | Kd (hH3R; radioligand used at 2 nM) | gpH3R pA2 ± sem (gpH3R; isolated guinea pig ileum, vs RAMH, 20 min) | IC50 (eeAChE; eeAChE IC50 ± sem)
1 | N=C(N)N(CCCCN1CCN(CCCOCCCc2ccccc2)CC1)Cc1ccc(C(F)(F)F)cc1 [ADS10350] | 1 ± 0.2% | 2690 nM | 28.8 nM | 28.3 ± 3.2% | 269 nM |  |  |  |  |  |  | 
2 | N=C(N)N(CCCCc1ccc(Cl)cc1)CCCN1CCCCC1 [ADS10312] | 22.2 ± 3.9% | 525 nM |  | 72.6 ± 5.2% | 1380 nM | 93.3 nM | 3500 ± 100 nM |  |  |  |  | 
3 | N=C(N)N(CCCCN1CCN(CCCOCCCc2ccc(Cl)cc2)CC1)Cc1ccccc1 [ADS10278] | 44 ± 0.9% |  |  | 76.6 ± 1.3% | 117 nM | 14.8 nM | 2000 ± 100 nM | 324 nM |  |  |  | 
4 | N=C(N)N(CCCCN1CCN(CCCOCCCc2ccccc2)CC1)Cc1ccccc1 [ADS10349] | 6.4 ± 1.3% |  |  | 32.4 ± 4.2% | 347 nM | 45.7 nM |  | 2510 nM |  |  |  | 
5 | N=C(NCCCCN1CCCCC1)NCCCc1ccc(Cl)cc1 [ADS10301] | 11.3 ± 0.4% | 191 nM |  | 60.4 ± 0.7% | 347 nM | 22.9 nM | 5900 ± 100 nM |  | < 200 nM |  |  | 
6 | N=C(N)N(CCCCN1CCN(CCCOCCCc2ccc(Cl)cc2)CC1)Cc1ccc(C(F)(F)F)cc1 [ADS10279] | 47.4 ± 1.2% | 1070 nM |  | 67.5 ± 0.5% | 135 nM | 5.25 nM | 4800 ± 100 nM |  |  |  |  | 
7 | N=C(N)N(CCCCN1CCN(CCCCCCCOc2ccc(Cl)cc2)CC1)Cc1ccccc1 [ADS10377] | 34.3 ± 2.6% | 282 nM |  | 84.6 ± 1.5% | 123 nM | 15.1 nM | 1900 ± 100 nM |  |  |  |  | 
8 | CNCCc1cnc[nH]1 [[3H]Nα-methylhistamine, reference compound] |  |  |  |  |  |  |  |  |  | 3.08 nM |  | 
9 | S=C(NC1CCCCC1)N1CCC(c2cnc[nH]2)CC1 [Thioperamide, reference compound] |  |  | 1.55 nM |  |  |  |  |  |  |  |  | 
10 | N=C(N)N(CCCCN1CCN(CCCCCCCOc2ccccc2)CC1)Cc1ccc(C(F)(F)F)cc1 [ADS1020] |  |  |  |  | 871 nM |  |  | 437 nM |  |  | 8.49 ± 0.05 | 
11 | N=C(N)N(CCCCN1CCCCC1)CCCc1ccc(Cl)cc1 [ADS10300] | 40.7 ± 1.8% | 603 nM |  | 75.2 ± 0.4% | 2510 nM | 47.9 nM | 2400 ± 100 nM |  |  |  |  | 
12 | N=C(NCCCCc1ccc(Cl)cc1)NCCCN1CCCCC1 [ADS10306] | 17.8 ± 0.7% | 195 nM |  | 89.4 ± 0.1% | 67.6 nM | 47.9 nM | 1600 nM |  | < 200 nM |  |  | 
13 | N=C(NCCCc1ccc(Cl)cc1)NCCCN1CCCCC1 [ADS10298] | 39.8 ± 2.6% | 537 nM | 41.7 nM | 20.3 ± 0.8% | 132 nM |  |  |  |  |  |  | 
14 | N=C(N)N(CCCCN1CCN(CCCCCCCOc2ccc(Cl)cc2)CC1)Cc1ccc(C(F)(F)F)cc1 [ADS10376] | 27.8 ± 5.1% | 398 nM |  | 71.4 ± 0.6% | 214 nM | 7.08 nM | 4900 ± 200 nM |  |  |  |  | 
15 | N=C(N)N(CCCc1ccc(Cl)cc1)CCCN1CCCCC1 [ADS10292] | 50.6 ± 0.8% | 2690 nM |  | 54.3 ± 4.7% | 1200 nM | 45.7 nM | 8400 ± 200 nM |  |  |  |  | 10900 nM
